Literature values in PMC12211128, “Safety, tolerability, pharmacokinetic and pharmacodynamic effects of the muscarinic M1 positive allosteric modulator VU0467319 for Alzheimer’s disease: a single ascending-dose study in healthy participants” (Alzheimer's Research & Therapy, 2025).

How the values were obtained:
M1 mAChR = conditions: cited from earlier work
Parkinson's disease = tested on: Parkinson's disease; design: method as in PMID 39761063; conditions: cited from earlier work

Row | SMILES | agonist and PAM properties at M1 (M1 mAChR) | cognitive performance in Parkinson's disease (Parkinson's disease)
1 | COc1ccc(Cn2cc(C(=O)O)c(=O)c3ccccc32)cc1 [BQCA, benzyl quinolone carboxylic acid, reference compound] | both agonist and PAM properties | 
2 | Cc1c(Cc2ccc(-n3cccn3)cc2)cc2c(c1F)CN([C@H]1COCC[C@@H]1O)C2=O [TAK-071] |  | produced improvement in cognitive performance
